Columns and labels:
Details in all cases: treatment: drug + dasatinib (fixed dose, not stated); 5 days
A498 [1] = assay: GI50 of drug in presence of dasatinib; higher = less potent
Protocol: (§1)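 Primary HTS combination arm: 8 RCC cell lines treated with 8 doses (up to 10 uM) of each library drug plus a fixed dose of dasatinib (dose not stated) for 5 days; viability read by CellTiter-Glo and normalised to DMSO. GI50 was fitted with XLfit, AUC is the area under the dose-response curve, and minimum viability is the lowest fraction of DMSO viability across doses.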

ACHN [2] = assay: as above
Protocol: as §1

CAKI-1 [3] = assay: as above
Protocol: as §1

UO-31 [4] = assay: as above
Protocol: as §1

SN12C [5] = assay: as above
Protocol: as §1

769-P [6] = assay: as above
Protocol: as §1

TK-10 [7] = assay: as above
Protocol: as §1

786-O [8] = assay: as above
Protocol: as §1

A498 [9] = assay: minimum viability across doses, drug + dasatinib, relative to DMSO (fraction); higher = less growth inhibition
Protocol: as §1

ACHN [10] = assay: as above
Protocol: as §1

CAKI-1 [11] = assay: as above
Protocol: as §1

UO-31 [12] = assay: as above
Protocol: as §1

SN12C [13] = assay: as above
Protocol: as §1

769-P [14] = assay: as above
Protocol: as §1

TK-10 [15] = assay: as above
Protocol: as §1

786-O [16] = assay: as above
Protocol: as §1

A498 [17] = assay: AUC of dose-response viability curve, drug + dasatinib, normalised to DMSO (arbitrary (AUC of normalised viability)); higher = less growth inhibition
Protocol: as §1

ACHN [18] = assay: as above
Protocol: as §1

CAKI-1 [19] = assay: as above
Protocol: as §1

UO-31 [20] = assay: as above
Protocol: as §1

SN12C [21] = assay: as above
Protocol: as §1

769-P [22] = assay: as above
Protocol: as §1

TK-10 [23] = assay: as above
Protocol: as §1

786-O [24] = assay: as above
Protocol: as §1

Row | Compound | GI50 of drug (A498 [1]) [nM] | GI50 of drug (ACHN [2]) [nM] | GI50 of drug (CAKI-1 [3]) [nM] | GI50 of drug (UO-31 [4]) [nM] | GI50 of drug (SN12C [5]) [nM] | GI50 of drug (769-P [6]) [nM] | GI50 of drug (TK-10 [7]) [nM] | GI50 of drug (786-O [8]) [nM] | minimum viability across doses (A498 [9]) | minimum viability across doses (ACHN [10]) | minimum viability across doses (CAKI-1 [11]) | minimum viability across doses (UO-31 [12]) | minimum viability across doses (SN12C [13]) | minimum viability across doses (769-P [14]) | minimum viability across doses (TK-10 [15]) | minimum viability across doses (786-O [16]) | AUC of dose-response viability curve (A498 [17]) | AUC of dose-response viability curve (ACHN [18]) | AUC of dose-response viability curve (CAKI-1 [19]) | AUC of dose-response viability curve (UO-31 [20]) | AUC of dose-response viability curve (SN12C [21]) | AUC of dose-response viability curve (769-P [22]) | AUC of dose-response viability curve (TK-10 [23]) | AUC of dose-response viability curve (786-O [24])
1 | O=c1[nH]c2ccc(Cl)cc2c(N[C@@H]2CN3CCC2CC3)c1-c1nc2ccccc2[nH]1 [CHIR-124] + Cc1nc(Nc2ncc(C(=O)Nc3c(C)cccc3Cl)s2)cc(N2CCN(CCO)CC2)n1 [dasatinib] | 293 | 11.2 | 87.1 | 73.9 | 1000 | 101 | 70.6 | 37.4 | 0.0177 | 0.018 | 0.0428 | 0.00945 | 0.00873 | 0.0198 | 0.151 | 0.00497 | 2.13 | 0.737 | 1.3 | 1.52 | 1.76 | 1.31 | 1.37 | 0.817
2 | C=CC(=O)Nc1cc2c(Nc3ccc(F)c(Cl)c3)ncnc2cc1OCCCN1CCOCC1 [CI-1033 (Canertinib)] + Cc1nc(Nc2ncc(C(=O)Nc3c(C)cccc3Cl)s2)cc(N2CCN(CCO)CC2)n1 [dasatinib] | 4070 | 14.1 | 739 | 1330 | 969 | 46.4 | 283 | 1340 | 0.0275 | 0.11 | 0.0894 | 0.00946 | 0.295 | 0.185 | 0.133 | 0.372 | 2.74 | 1.31 | 1.84 | 2.4 | 2.13 | 1.46 | 1.79 | 2.11
3 | Cc1nc(N)sc1-c1ccnc(Nc2ccc(N3CCOCC3)cc2)n1 [CYC116] + Cc1nc(Nc2ncc(C(=O)Nc3c(C)cccc3Cl)s2)cc(N2CCN(CCO)CC2)n1 [dasatinib] | 6520 | 137 | 332 | 2020 | 831 | 1020 | 640 | 482 | 0.381 | 0.0722 | 0.00751 | 0.0118 | 0.0981 | 0.074 | 0.0917 | 0.0032 | 3.01 | 1.35 | 1.45 | 2.86 | 2 | 1.92 | 1.96 | 1.74
4 | COc1cc2c(Oc3ccc4[nH]c(C)cc4c3F)ncnc2cc1OCCCN1CCCC1 [Cediranib (AZD2171)] + Cc1nc(Nc2ncc(C(=O)Nc3c(C)cccc3Cl)s2)cc(N2CCN(CCO)CC2)n1 [dasatinib] | 2390 | 210 | 287 | 617 | 355 | 3970 | 2240 | 1350 | 0.154 | 0.0558 | 0.019 | 0.014 | 0.0758 | 0.145 | 0.0412 | 0.13 | 2.63 | 1.61 | 1.59 | 2.17 | 1.85 | 2.35 | 2.35 | 2.21
5 | N#CCNC(=O)c1ccc(-c2ccnc(Nc3ccc(N4CCOCC4)cc3)n2)cc1 [Cyt387] + Cc1nc(Nc2ncc(C(=O)Nc3c(C)cccc3Cl)s2)cc(N2CCN(CCO)CC2)n1 [dasatinib] | > 10000 | 796 | 325 | 2550 | 2910 | 2110 | 1630 | 884 | 0.897 | 0.0607 | 0.0305 | 0.00938 | 0.271 | 0.125 | 0.0961 | 0.0246 | 3.6 | 1.72 | 1.83 | 2.78 | 2.27 | 2.24 | 2.14 | 1.73
6 | CNC(=O)c1cc(Oc2ccc(NC(=O)Nc3cc(C(C)(C)C)nn3-c3ccc4ncccc4c3)c(F)c2)ccn1 [DCC-2036 (Rebastinib)] + Cc1nc(Nc2ncc(C(=O)Nc3c(C)cccc3Cl)s2)cc(N2CCN(CCO)CC2)n1 [dasatinib] | 4420 | 499 | 125 | 1100 | 319 | 1540 | 1330 | 293 | 0.0121 | 0.0458 | 0.053 | 0.00958 | 0.0277 | 0.185 | 0.0566 | 0.208 | 3.51 | 1.71 | 1.54 | 2.84 | 1.87 | 2.21 | 2.29 | 1.88
7 | CN1CCN(c2ccc3nc(-c4c(N)c5c(F)cccc5[nH]c4=O)[nH]c3c2)CC1 [Dovitinib (TKI-258)] + Cc1nc(Nc2ncc(C(=O)Nc3c(C)cccc3Cl)s2)cc(N2CCN(CCO)CC2)n1 [dasatinib] | 2330 | 44.8 | 148 | 697 | 266 | 1410 | 1890 | 4070 | 0.239 | 0.14 | 0.0724 | 0.0928 | 0.0733 | 0.0592 | 0.277 | 0.263 | 2.49 | 1.38 | 1.5 | 2.36 | 1.6 | 2.06 | 2.33 | 2.58

Reference: the supplement of paper PMC8149375
